Assay results published in US12391686B2, “Compounds and uses thereof” (Foghorn Therapeutics Inc., priority 2019, dated 2025).

Each compound was assayed against T1, Nanoluciferase-BRD9 fusion protein (3×FLAG-NLuc-BRD9) in SYO-1 cells (Homo sapiens, UniProt Q9H8M2) (assay: SYO1 BRD9 NanoLuc Degradation Assay). Conditions: Table 6C; SYO-1 cells expressing 3×FLAG-NLuc-BRD9, 6 hours incubation, 1 μM top dose; read-out: SYO1 BRD9-NanoLuc degradation IC50.
T1 construct: expressed in transfected cells; host or cells: SYO-1
T1 sequence (Q9H8M2 1-597): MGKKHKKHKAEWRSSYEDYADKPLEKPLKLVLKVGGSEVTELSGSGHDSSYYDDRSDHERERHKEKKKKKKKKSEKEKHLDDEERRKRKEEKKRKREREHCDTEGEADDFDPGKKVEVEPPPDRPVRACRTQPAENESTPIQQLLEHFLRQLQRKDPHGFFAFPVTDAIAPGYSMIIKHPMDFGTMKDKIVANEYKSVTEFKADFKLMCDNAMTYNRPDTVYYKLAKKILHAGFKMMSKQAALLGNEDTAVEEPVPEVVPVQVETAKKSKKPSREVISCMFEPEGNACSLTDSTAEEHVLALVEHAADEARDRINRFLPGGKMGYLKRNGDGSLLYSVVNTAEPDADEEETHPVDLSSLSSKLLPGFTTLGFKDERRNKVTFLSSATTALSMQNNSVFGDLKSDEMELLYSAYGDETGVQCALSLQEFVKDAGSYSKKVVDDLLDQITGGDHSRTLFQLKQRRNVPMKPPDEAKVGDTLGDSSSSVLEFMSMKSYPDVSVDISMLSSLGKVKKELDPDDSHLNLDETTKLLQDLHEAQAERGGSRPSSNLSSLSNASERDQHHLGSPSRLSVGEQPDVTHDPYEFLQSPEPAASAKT
Format: cell-based
How it was run: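 Stable 3×FLAG-NLuc-BRD9 SYO-1 line, 8000 cells/well, dosed day 1 with 10-point 3-fold dilutions (1 μM final top, duplicates) for 6 h. NanoLuc bioluminescence read with Nano-Glo; % inhibition relative to DMSO (high) and 1 μM reference BRD9 degrader (low) controls.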

With `COCC1CN(CCC2CCN(c3ccc4c(c3)C(=O)N(C3CCC(=O)NC3=O)C4=O)CC2)CCN1Cc1c(OC)cc(-c2cn(C)c(=O)c3cnc(N4CCC4)cc23)cc1OC` (centres unmarked) [Compound D215] as the compound, how does the DC50 read?
Its DC50 is < 10 nM.

With `COc1cc(-c2cn(C)c(=O)c3cnc(C4(C)CC4)cc23)cc(OC)c1CN1CCC(CCN2CCN(c3ccc4c(c3)C(=O)N(C3CCC(=O)NC3=O)C4=O)CC2)CC1` (centres unmarked) [Compound D216] as the compound, how does the DC50 read?
The DC50 was < 10 nM.

For `COc1cc2c(-c3cc(OC)c(CN4CCN(c5ccc6c(c5)C(=O)N(C5CCC(=O)NC5=O)C6)CC4)c(OC)c3)cn(C)c(=O)c2cn1` (centres unmarked) [Compound D217], which DC50 is on record?
The DC50 was < 10 nM.

`COc1cc(-c2cn(C)c(=O)c3cnc(N4CCC4)cc23)cc(OC)c1CN1CCC(CN2CCC3(CC2)CN(c2ccc4c(c2)CN(C2CCC(=O)NC2=O)C4=O)C3)CC1` (centres unmarked) [Compound D218] was tested. Which DC50 did it give?
The DC50 was < 10 nM.

`COc1cc(-c2cn(C)c(=O)c3cnc(C4CC4)cc23)cc(OC)c1CN1CCC2(CC1)CN(c1ccc3c(c1)C(=O)N(C1CCC(=O)NC1=O)C3=O)C2` (centres unmarked) [Compound D219] was tested. Which DC50 did it give?
Its DC50 is < 10 nM.

Which DC50 does the source give for `COc1cc(-c2cn(C)c(=O)c3cnc(C4CC4)cc23)cc(OC)c1CN1CCC2(CC1)CN(c1ccc3c(c1)CN(C1CCC(=O)NC1=O)C3=O)C2` (centres unmarked) [Compound D220] here?
The DC50 was < 10 nM.

`COc1cc(-c2cn(C)c(=O)c3cnc(N4CCC4)c(F)c23)cc(OC)c1CN1CC(CN2CCC3(CC2)CN(c2ccc4c(c2)C(=O)N(C2CCC(=O)NC2=O)C4)C3)C1` (centres unmarked) [Compound D221] was tested. Which DC50 did it give?
The DC50 was < 10 nM.

Which DC50 does the source give for `COc1cc(-c2cn(C)c(=O)c3cnc(N4CCC4)cc23)cc(OC)c1CN1[C@H](C)CN(CCC2CCN(c3ccc4c(c3)C(=O)N(C3CCC(=O)NC3=O)C4=O)CC2)C[C@H]1C` (some centres unmarked) [Compound D222] here?
Its DC50 is < 10 nM.

`[2H]C([2H])([2H])n1cc(-c2cc(OC)c(CN3CCN(CCC4CCN(c5ccc6c(c5)CN(C5CCC(=O)NC5=O)C6=O)CC4)CC3)c(OC)c2)c2cc(N(C)C)ncc2c1=O` (centres unmarked) [Compound D223] was tested. Which DC50 did it give?
Its DC50 is < 10 nM.

Which DC50 does the source give for `COc1cc2c(-c3cc(OC)c(CN4CCN(CCC5CCN(c6ccc7c(c6)CN(C6CCC(=O)NC6=O)C7=O)CC5)CC4)c(OC)c3)cn(C)c(=O)c2cn1` (centres unmarked) [Compound D224] here?
The DC50 was < 10 nM.

With `COc1cc2c(-c3cc(OC)c(CN4CCN(CCC5CCN(c6ccc7c(c6)C(=O)N(C6CCC(=O)NC6=O)C7)CC5)CC4)c(OC)c3)cn(C)c(=O)c2cn1` (centres unmarked) [Compound D225] as the compound, how does the DC50 read?
Its DC50 is < 10 nM.

`COc1cc(-c2cn(C)c(=O)c3cnc(C4CC4)cc23)cc(OC)c1CN1CCC2(CC1)CN(c1ccc3c(c1)C(=O)N(C1CCC(=O)NC1=O)C3)C2` (centres unmarked) [Compound D226] was tested. Which DC50 did it give?
The DC50 was < 10 nM.

With `COc1cc(-c2cn(C)c(=O)c3cnc(N4CCC4)cc23)cc(OC)c1CN1CCC(CN2CCC3(CN(c4ccc5c(c4)C(=O)N(C4CCC(=O)NC4=O)C5)C3)C(F)(F)C2)CC1` (centres unmarked) [Compound D227] as the compound, how does the DC50 read?
Its DC50 is < 10 nM.

With `COc1cc(-c2cn(C)c(=O)c3cnc(C(C)(C)O)cc23)cc(OC)c1CN1CCC(CN2CCC3(CC2)CC(Oc2ccc4c(c2)C(=O)N(C2CCC(=O)NC2=O)C4)C3)CC1` (centres unmarked) [Compound D228] as the compound, how does the DC50 read?
Its DC50 is < 10 nM.

`COc1cc(-c2cn(C)c(=O)c3cnc(C4(C)CC4)cc23)cc(OC)c1CN1CC(Oc2ccc3c(c2)C(=O)N(C2CCC(=O)NC2=O)C3=O)C1` (centres unmarked) [Compound D229] was tested. Which DC50 did it give?
Its DC50 is < 10 nM.

Which DC50 does the source give for `[2H]C([2H])([2H])n1cc(-c2cc(OC)c(CN3CCN(CCC4CCN(c5ccc6c(c5)CN(C5CCC(=O)NC5=O)C6=O)CC4)CC3)c(OC)c2)c2cc(OC)ncc2c1=O` (centres unmarked) [Compound D230] here?
The DC50 was < 10 nM.

Which DC50 does the source give for `[2H]C([2H])([2H])n1cc(-c2cc(OC)c(CN3CCN(CCC4CCN(c5ccc6c(c5)C(=O)N(C5CCC(=O)NC5=O)C6)CC4)CC3)c(OC)c2)c2cc(OC)ncc2c1=O` (centres unmarked) [Compound D231] here?
The DC50 was < 10 nM.

How did the DC50 turn out when `COc1cc(-c2cn(C)c(=O)c3cnc(N4CCC4)cc23)cc(OC)c1CN1CCC(CN2CCC3(CN(c4ccc5c(c4)CN(C4CCC(=O)NC4=O)C5=O)C3)C(F)(F)C2)CC1` (centres unmarked) [Compound D232] was run?
Its DC50 is < 10 nM.

Which DC50 does the source give for `[2H]C([2H])([2H])n1cc(-c2cc(OC)c(CN3CCC4(CC3)CN(c3ccc5c(c3)C(=O)N(C3CCC(=O)NC3=O)C5)C4)c(OC)c2)c2cc(C3CC3)ncc2c1=O` (centres unmarked) [Compound D233] here?
Its DC50 is < 10 nM.

How did the DC50 turn out when `[2H]C([2H])([2H])n1cc(-c2cc(OC)c(CN3CCC4(CC3)CN(c3ccc5c(c3)C(=O)N(C3CCC(=O)NC3=O)C5)C4)c(OC)c2)c2cc(OC)ncc2c1=O` (centres unmarked) [Compound D234] was run?
Its DC50 is < 10 nM.

Which DC50 does the source give for `COc1cc2c(-c3cc(OC)c(CN4CCC(c5ccc6c(c5)CN(C5CCC(=O)NC5=O)C6=O)CC4)c(OC)c3)cn(C)c(=O)c2cn1` (centres unmarked) [Compound D235] here?
The DC50 was < 10 nM.

For `COc1cc(-c2cn(C)c(=O)c3cnc(N(C)C)cc23)cc(OC)c1CN1CCC(CN2CCC3(CC2)CN(c2ccc4c(c2)C(=O)N(C2CCC(=O)NC2=O)C4)C3)C(F)(F)C1` (centres unmarked) [Compound D236], which DC50 is on record?
The DC50 was < 10 nM.

How did the DC50 turn out when `COc1cc(-c2cn(C)c(=O)c3cnc(C4(C)CC4)cc23)cc(OC)c1CN1CCC(CCN2CCN(c3ccc4c(c3)C(=O)N(C3CCC(=O)NC3=O)C4)CC2)CC1` (centres unmarked) [Compound D237] was run?
Its DC50 is < 10 nM.

How did the DC50 turn out when `COc1cc(-c2cn(C)c(=O)c3cnc(C4(C)CC4)cc23)cc(OC)c1CN1CCC(CCN2CCN(c3ccc4c(c3)CN(C3CCC(=O)NC3=O)C4=O)CC2)CC1` (centres unmarked) [Compound D238] was run?
Its DC50 is < 10 nM.

With `[2H]C([2H])([2H])n1cc(-c2cc(OC)c(CN3CC(Oc4ccc5c(c4)C(=O)N(C4CCC(=O)NC4=O)C5)C3)c(OC)c2)c2cc(OC)ncc2c1=O` (centres unmarked) [Compound D239] as the compound, how does the DC50 read?
Its DC50 is < 10 nM.

Which DC50 does the source give for `[2H]C([2H])([2H])n1cc(-c2cc(OC)c(CN3CCN(CCC4CCN(c5ccc6c(c5)C(=O)N(C5CCC(=O)NC5=O)C6)CC4)CC3)c(OC)c2)c2cc(N(C)C)ncc2c1=O` (centres unmarked) [Compound D240] here?
The DC50 was < 10 nM.

How did the DC50 turn out when `COc1cc(-c2cn(C)c(=O)c3cnc(N4CC(F)(F)C4)cc23)cc(OC)c1CN1CCC(CCN2CCC3(CC2)CN(c2ccc4c(c2)C(=O)N(C2CCC(=O)NC2=O)C4)C3)CC1` (centres unmarked) [Compound D241] was run?
The DC50 was < 10 nM.

`[2H]C([2H])([2H])n1cc(-c2cc(OC)c(CN3CC(Oc4ccc5c(c4)CN(C4CCC(=O)NC4=O)C5=O)C3)c(OC)c2)c2cc(OC)ncc2c1=O` (centres unmarked) [Compound D242] was tested. Which DC50 did it give?
The DC50 was < 10 nM.

How did the DC50 turn out when `COc1cc(-c2cn(C)c(=O)c3cnc(C4CC4)cc23)cc(OC)c1CN1CCC(C(N2CCC3(CC2)CC(Oc2ccc4c(c2)C(=O)N(C2CCC(=O)NC2=O)C4)C3)C(F)(F)F)CC1` (centres unmarked) [Compound D243] was run?
Its DC50 is < 10 nM.

With `[2H]C1CC(N2Cc3ccc(N4CCC(CCN5CCN(Cc6c(OC)cc(-c7cn(C)c(=O)c8cnc(N9CCC9)cc78)cc6OC)CC5)CC4)cc3C2=O)C(=O)NC1=O` (centres unmarked) [Compound D244] as the compound, how does the DC50 read?
Its DC50 is < 10 nM.

For `[2H]C1CC(N2Cc3cc(N4CCC(CCN5CCN(Cc6c(OC)cc(-c7cn(C)c(=O)c8cnc(N9CCC9)cc78)cc6OC)CC5)CC4)ccc3C2=O)C(=O)NC1=O` (centres unmarked) [Compound D245], which DC50 is on record?
The DC50 was < 10 nM.

For `[2H]C([2H])([2H])n1cc(-c2cc(OC)c(CN3CC(Oc4ccc5c(c4)C(=O)N(C4CCC(=O)NC4=O)C5)C3)c(OC)c2)c2cc(C3CC3)ncc2c1=O` (centres unmarked) [Compound D247], which DC50 is on record?
The DC50 was < 10 nM.

Which DC50 does the source give for `COc1cc(-c2cn(C)c(=O)c3cnc(N4CC(F)(F)C4)cc23)cc(OC)c1CN1CCN(CCC2CCN(c3ccc4c(c3)CN(C3CCC(=O)NC3=O)C4=O)CC2)CC1` (centres unmarked) [Compound D248] here?
Its DC50 is < 10 nM.

Which DC50 does the source give for `COc1cc(-c2cn(C)c(=O)c3cnc(N(C)C)cc23)cc(OC)c1CN1CC2(CC(N3CCN(C4CCC(=O)NC4=O)C(=O)C3)C2)C1` (centres unmarked) [Compound D249] here?
Its DC50 is 100 to 1000 nM.

With `COc1cc(-c2cn(C)c(=O)c3cnc(N(C)C)cc23)cc(OC)c1CN1CCC(N2CCN(C3CCC(=O)NC3=O)C(=O)C2)C1` (centres unmarked) [Compound D250] as the compound, how does the DC50 read?
The DC50 was 100 to 1000 nM.
